From US20030092603A1, “Identification of specific modulators of bone formation” (priority 2001, published 2003)
Peptide text beside a SMILES is read from it. * marks the point of attachment. Cbz = O=C(OCc1ccccc1)*

Experiments:
Smad1 = experiment: Smurf1-induced Smad1 degradation in C2C12 cells transfected with Smad1 and Smurf1; assay type: cell-based; conditions: 24 h
Method: Effects of proteasome inhibitors on steady-state levels of Smad1 protein were examined in C2C12 cells. C2C12 cells were plated in 6-well culture plates at density of 2×10^5 cells/well and cultured with DMEM supplemented with 10% FCS for 24 h. The cells were then transfected with Smad1 and Smurf1 expression plasmids. 24 h after transfection, the cells were treated with different proteasome inhibitors at different concentrations and incubated for additional 24 h.

endogenous Smad1 = experiment: Steady-state levels of endogenous Smad1 in C2C12 cells, Western blot; assay type: cell-based; conditions: 24 hours, vs control
Method: To determine the effects of proteasome inhibitors on the steady-state levels of endogenous Smad1 protein, C2C12 cells were plated in 6-well culture plates (2×10^5 cells/well) and cultured with DMEM supplemented with 10% FCS. 24 h later, proteasome inhibitors lactacystin (10 μM), MG-132 (2.5 and 5 μM), PS-1 (25 and 50 nM) were added into C2C12 cells. The cells were cultured with the proteasome inhibitors for 24 hours and then the cell lysates were extracted. The steady-state levels of endogenous Smad1 were analyzed by Western blot using Smad1 antibody (Santa Cruz).

[1] = tested on: neonatal murine calvarial bones; experiment: Organ culture of neonatal murine calvarial bones, bone formation; assay type: cell-based, ICR Swiss mice; conditions: for effect on osteoblast differentiation and bone formation after transfection of trGli3: calvariae transfected with trGli3, epoxomicin 20 nM, 3 days, histology
Method: Organ cultures of neonatal murine calvarial bones were used as described by Traianedes, K., et al., Endocrinology (1998) 139:3178-3184. Bones were removed from the calvaria of 4-5 day old ICR Swiss mice and cultured in BGJ medium with 0.1% BSA for 72 hours together with test compounds. Mouse noggin/FC chimera was purchased from R&D Systems, Stillwater, Minn., and added at 2 μg/ml.
Neonatal murine calvariae were transfected with either empty vector or truncated Gli3 (trGli3) using lipofectamine plus reagents for the first 24 hours and then treated with epoxomicin (20 nM) for the remaining 3 days of the assay according to Traianedes, et al., 1998 (supra).

BMP-2 protein = BMP-2 protein production by ELISA, MG-63 cell lysates; assay type: cell-based; conditions: cultured human MG-63 osteoblastic cells, 24 h
Method: MG-63 cells were plated in 12-well culture plates at the density of 2.5×10^5 cells/well and cultured with αMEM supplemented with 10% FCS for 24 h. The cells were treated with the proteasome inhibitors epoxomicin and PSI for 24 h. After incubation, the cell lysates were extracted with 150 μl lysis buffer (50 mM TrisHCl pH 8.0, 150 mM NaCl, 1% NP40) with protease inhibitors. The lysates were used to measure the BMP-2 protein production by ELISA.
For protein production, 96-well Dynatech white plates were coated with mouse anti-hBMP-2 monoclonal antibody (raised against rhBMP-2) at 1 μg/ml in PBS (100 μl/well) and incubated overnight at 4° C. The following procedures were performed at room temperature. The plates were washed 3 times with 300 μl of PBS-T wash buffer (PBS and 0.05% Tween) and then blocked with 300 μl 0.2% I-Block solution (0.2% I-Block in PBS-T, Applied Biosystems) for 2 h. 100 μl cell lysates were then added and incubated with coated antibody for 2 h. […] After 3 time washing with wash buffer and 3 time washing with assay buffer, the plates were incubated with 100 μl Tropix enzyme substrate (Applied Biosystems) in dark for 10 min and then read light emission with a Luminometer. rhBMP-2 (R&D) was used to generate the standard curve.

BMP-2 mRNA = BMP-2 mRNA expression, Northern blot, MG-63 cells; assay type: cell-based; conditions: cultured human MG-63 osteoblastic cells
Method: (§1) 2T3 murine osteoblast precursor cells and MG-63 human osteoblastic cells were cultured with α minimal essential medium (αMEM) supplemented with 10% fetal calf serum (FCS).
(§2) MG-63 cells were plated in T-150 flasks at density of 2×10^6 cells per flask for RNA extraction. Total RNA was extracted from MG-63 cells using RNAzol B method (Tel-test Inc., Houston, Tex.). Enrichment of polyadenylated RNA was obtained using Stratagene oligo(dT) cellulose columns (Stratagene, San Diego, Calif.). 5 μg of poly (A^+) RNA was denatured in 2.2 M formaldehyde and 50% fornamide and run on an 1% agarose gel containing 2.2 M formaldehyde. The gels were transferred to a Nytran filter (Schleicher and Schuell, Keene, N.H.) by capillary blotting with 20× SSC (1× SSC=150 mM NaCl, 15 mM Na Citrate, pH 7.0). The RNA was then cross-linked to the filter by UV irradiation (Stratalink, Stratagene, San Diego, Calif.). Prehybridization was carried out at 56° C. in 5× SSC containing 50% formamide and 150 μg/ml of denatured salmon sperm DNA. After 1-2 h prehybridization, the DNA probes were added to the hybridization solution at a concentration of 5×10^5 cpm/ml. Hybridization was carried out for 15 h at 56° C. […] The filters were dried at room temperature, exposed at −70° C. overnight and then quantitated in cpm using an AMBIS Image Acquisition and Analysis System (AMBIS, San Diego, Calif.).

Gli3 = Gli3 processing in 293 cells transfected with Flag-Gli3, Western blot; assay type: cell-based, human; conditions: for band of short form Gli3^85: FIG. 2a
Method: (§3) Full-length human Gli3 expression plasmid (pact-Flag-Gli3) was kindly provided by Dr. Shunsuke Ishii (Dai, P., et al., J. Biol. Chem. (1999) 274:8143-8152). The molecular weights for expressed Gli3 proteins by transfection of full-length Gli3 cDNA is about 190 kd (Gli3^190) and the processed form of Gli3 is about 85 kd (Gli3^85).
293 cells were plated in 6-well culture plates and cultured with Dulbecco's modified Eagle's medium (DMEM, Sigma). 24 hours after plating, the cells were transiently transfected with Flag-Gli3 cDNA (1 μg/well) and treated with 3-isobutyl-1-methylxanthine (IBMX, 200 μM) in the presence or absence of 1, 10 and 100 nM epoxomicin or PS-1. The steady-state protein levels of Gli3 precursor protein (Gli3^190) or processed form of Gli3 (Gli3^85) were detected by Western blot using anti-Flag antibody.

[2] = tested on: Gli3 precursor protein (Gli3^190); experiment: Gli3 precursor (Gli3^190) degradation in C3H10T1/2 cells, Western blot; assay type: cell-based, mouse; conditions: IBMX 200 μM
Method: as §3
C3H10T1/2 multipotent progenitor cells were cultured with RPMI […] medium. The medium was purchased from Sigma (St. Louis, Mo.) and supplemented with 10% fetal calf serum (FCS). C3H10T1/2 cells were plated in 6-well culture plates at the density of 2×10^5 cells/well and transfected with Flag-Gli3 (2 μg/well) and treated with IBMX (200 μM) in the presence or absence of 10 and 20 nM of epoxomicin. Gli3^190 protein expression was detected by Western blot using anti-Flag antibody.

BMP-4 mRNA = BMP-4 mRNA expression, MG-63 cells; assay type: cell-based; conditions: cultured human MG-63 osteoblastic cells
Method: as §1, §2

[3] = tested on: murine BMP-2 promoter (−2712/+165); experiment: BMP-2 promoter-luciferase assay in stably transfected 2T3 cells; assay type: cell-based
Method: as §1
The cells were plated in 96-well culture plates and cultured for 24 h. The cells were then treated with different proteasome inhibitors or other compounds for additional 24 h. The cell lysates were extracted and luciferase activities were measured by a luciferase assay kit (Promega, Madison, Wis.) using a Luminometer.

[4] = noggin 2 μg/ml, 72 hours culture

CC(C)C[C@@H](C=O)NC(=O)[C@H](CC(C)C)NC(=O)[C@H](CC(C)C)NC(=O)OCc1ccccc1 [MG-132] (Cbz-Leu-Leu-Leu-aldehyde)
Smurf1-induced Smad1 degradation (Smad1; C2C12 cells, 5 μM): partially or completely reversed
increase of endogenous Smad1 protein level (endogenous Smad1; 5 μM): 6.5 fold

aFGF: acidic fibroblast growth factor, unrelated anabolic agent
bone formation in calvarial cultures ([1]; 72 hours culture): bone formation stimulated
effect on osteoblast differentiation and bone formation after transfection of trGli3 [1]: no effect

CC(=O)N[C@@H](CSC(=O)[C@]1([C@@H](O)C(C)C)NC(=O)[C@H](C)[C@@H]1O)C(=O)O [lactacystin]
Smurf1-induced Smad1 degradation (Smad1; C2C12 cells, 10 μM): partially or completely reversed
increase of endogenous Smad1 protein level (endogenous Smad1; 10 μM): 3.7 fold

noggin
effect of noggin on bone formation stimulated by aFGF [1, 4]: no effect
effect of noggin on bone stimulating effect of BMP-2 [1, 4]: inhibited
effect of noggin on bone stimulating effect of PS-1 [1, 4]: inhibited
effect of noggin on bone stimulating effect of epoxomicin [1, 4]: inhibited

CC[C@H](C)[C@H](NC(=O)[C@H]([C@@H](C)CC)N(C)C(C)=O)C(=O)N[C@H](C(=O)N[C@@H](CC(C)C)C(=O)[C@@]1(C)CO1)[C@@H](C)O [epoxomicin]
BMP-2 protein expression (BMP-2 protein): increased
BMP-2 mRNA expression (BMP-2 mRNA): increased
band of short form Gli3^85 (Gli3; 1 nM epoxomicin): substantially reduced
band of short form Gli3^85 (Gli3; 10 nM epoxomicin): abolished
Gli3 processing to its processed shorter form (Gli3; IBMX 200 μM): impaired
Smurf1-induced Smad1 degradation (Smad1; C2C12 cells, 10, 20 and 40 nM, FIG. 5c): partially or completely reversed
degradation of Gli3 precursor protein (Gli3^190) [2]: prevent the degradation
bone formation in calvarial cultures ([1]; 72 hours culture): bone stimulating effects
effect on osteoblast differentiation and bone formation after transfection of trGli3 [1]: impaired markedly
expression of BMP-4 mRNA (BMP-4 mRNA): no effect
potency as stimulators of BMP-2 expression compared with the statins [3]: considerably more potent
luciferase activity (BMP-2 promoter) ([3]; treated 24 h): increased
